Laboratory results: patent US8822503B2, “2-pyridone compounds” (Taisho Pharmaceutical Co., Ltd, priority 2009, dated 2014)

Each compound was assayed against T1, human liver GK (Homo sapiens, UniProt P35557) (assay: GK activation test). Details: test compound concentration needed to activate 50% of maximum activation ability; 4 mM 14C-labeled glucose, 2 mM ATP, room temperature, 20 minutes.
T1 construct: GST (glutathione S-transferase) (N); made in house; host or cells: E. coli
T1 sequence (P35557 1-466 isoform P35557-2): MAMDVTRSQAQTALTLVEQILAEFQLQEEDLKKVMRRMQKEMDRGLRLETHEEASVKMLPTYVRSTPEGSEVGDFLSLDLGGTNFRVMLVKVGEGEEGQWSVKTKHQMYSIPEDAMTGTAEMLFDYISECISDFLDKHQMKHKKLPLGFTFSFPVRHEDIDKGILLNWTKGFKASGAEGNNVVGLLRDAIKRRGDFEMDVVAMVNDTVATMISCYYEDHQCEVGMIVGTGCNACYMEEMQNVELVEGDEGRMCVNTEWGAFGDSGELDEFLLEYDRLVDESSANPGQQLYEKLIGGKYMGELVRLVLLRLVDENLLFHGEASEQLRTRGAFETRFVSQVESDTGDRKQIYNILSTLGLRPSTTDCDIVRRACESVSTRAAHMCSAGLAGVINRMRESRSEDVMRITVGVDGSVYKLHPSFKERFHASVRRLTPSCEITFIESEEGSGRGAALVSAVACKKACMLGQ
Format: biochemical
Method in brief: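 GST-tagged human liver GK from E. coli (0.24 μg/well) with 4 mM 14C-glucose, 2 mM ATP in Hepes-KOH pH 7.1, KCl, MgCl2, DTT, 1% DMSO, 20 min room temperature. Labeled glucose 6-phosphate captured on anion resin, eluted and counted. EC50 = concentration giving half of maximal activation.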

First: O=C1CC[C@H](/C=C(\c2ccc(F)nc2)c2ccc(C3CC3)c(=O)[nH]2)N1 [Example 4-121, 3-Cyclopropyl-6-{(E)-1-(6-fluoropyridin-3-yl)-2-[(2R)-5-oxopyrrolidin-2-yl]ethenyl}pyridin-2(1H)-one]
Second: CS(=O)(=O)c1ccc(/C(=C\[C@H]2CCC(=O)N2)c2ccc(C3CC3)c(=O)[nH]2)cn1 [Example 4-142, 3-Cyclopropyl-6-{(E)-1-[6-(methylsulfonyl)pyridin-3-yl]-2-[(2R)-5-oxopyrrolidin-2-yl]ethenyl}pyridin-2(1H)-one]
The EC50 of the first is higher: 3 to 10 µM for the first, 0.5 to 3 µM for the second. The second is the more potent here.

`O=C1CC[C@H](/C=C(/c2ccc(C3CC3)c(=O)[nH]2)c2ccc(F)cc2O)N1` [Example 4-122, 3-Cyclopropyl-6-{(E)-1-(4-fluoro-2-hydroxyphenyl)-2-[(2R)-5-oxopyrrolidin-2-yl]ethenyl}pyridin-2(1H)-one] and `O=C1CC[C@H](/C=C(\c2ccc(O)c(Cl)c2)c2ccc(C3CC3)c(=O)[nH]2)N1` [Example 4-145, 6-{(E)-1-(3-Chloro-4-hydroxyphenyl)-2-[(2R)-5-oxopyrrolidin-2-yl]ethenyl}-3-cyclopropylpyridin-2(1H)-one] fall in the same range of EC50: 0.01 to 0.5 µM for the first, 0.01 to 0.5 µM for the second.

`O=C1CC[C@H](/C=C(\c2ccc3c(c2)CCO3)c2ccc(C3CC3)c(=O)[nH]2)N1` [Example 4-123, 3-Cyclopropyl-6-{(E)-1-(2,3-dihydro-1-benzofuran-5-yl)-2-[(2R)-5-oxopyrrolidin-2-yl]ethenyl}pyridin-2(1H)-one] and `COc1cc(/C(=C\[C@H]2CCC(=O)N2)c2ccc(C3CC3)c(=O)[nH]2)ccc1Cl` [Example 4-124, 6-{(E)-1-(4-Chloro-3-methoxyphenyl)-2-[(2R)-5-oxopyrrolidin-2-yl]ethenyl}-3-cyclopropylpyridin-2(1H)-one] fall in the same range of EC50: 0.01 to 0.5 µM for the first, 0.01 to 0.5 µM for the second.

`CCc1cc(/C(=C\[C@H]2CCC(=O)N2)c2ccc(C3CC3)c(=O)[nH]2)ccc1Cl` [Example 4-125, 6-{(E)-1-(4-Chloro-3-ethylphenyl)-2-[(2R)-5-oxopyrrolidin-2-yl]ethenyl}-3-cyclopropylpyridin-2(1H)-one] and `O=C1CC[C@H](/C=C(\c2ccc(C(F)F)c(Cl)c2)c2ccc(C3CC3)c(=O)[nH]2)N1` [Example 4-132, 6-{(E)-1-[3-Chloro-4-(difluoromethyl)phenyl]-2-[(2R)-5-oxopyrrolidin-2-yl]ethenyl}-3-cyclopropylpyridin-2(1H)-one] fall in the same range of EC50: 0.01 to 0.5 µM for the first, 0.01 to 0.5 µM for the second.

`O=C1CC[C@H](/C=C(\c2ccc(OC(F)(F)F)cc2)c2ccc(C3CC3)c(=O)[nH]2)N1` [Example 4-126, 3-Cyclopropyl-6-{(E)-2-[(2R)-5-oxopyrrolidin-2-yl]-1-[4-(trifluoromethoxy)phenyl]ethenyl}pyridin-2(1H)-one] and `O=C1CC[C@H](/C=C(\c2ccc(SC(F)(F)F)cc2)c2ccc(C3CC3)c(=O)[nH]2)N1` [Example 4-141, 3-Cyclopropyl-6-[(E)-2-[(2R)-5-oxopyrrolidin-2-yl]-1-{4-[(trifluoromethyl)sulfanyl]phenyl}ethenyl]pyridin-2(1H)-one] fall in the same range of EC50: 0.01 to 0.5 µM for the first, 0.01 to 0.5 µM for the second.

Compared with `O=C1CC[C@H](/C=C(\c2ccc(OC(F)F)cc2)c2ccc(C3CC3)c(=O)[nH]2)N1` [Example 4-127, 3-Cyclopropyl-6-{(E)-1-[4-(difluoromethoxy)phenyl]-2-[(2R)-5-oxopyrrolidin-2-yl]ethenyl}pyridin-2(1H)-one], `O=C1CC[C@H](/C=C(\c2ccc(Cl)c(OC(F)F)c2)c2ccc(C3CC3)c(=O)[nH]2)N1` [Example 4-130, 6-{(E)-1-[4-Chloro-3-(difluoromethoxy)phenyl]-2-[(2R)-5-oxopyrrolidin-2-yl]ethenyl}-3-cyclopropylpyridin-2(1H)-one] is higher in EC50: 0.01 to 0.5 µM for the first, 0.5 to 3 µM for the second. The first is the more potent here.

First: O=C1CC[C@H](/C=C(\c2ccc(OC(F)(F)F)c(Cl)c2)c2ccc(C3CC3)c(=O)[nH]2)N1 [Example 4-128, 6-{(E)-1-[3-Chloro-4-(trifluoromethoxy)phenyl]-2-[(2R)-5-oxopyrrolidin-2-yl]ethenyl}-3-cyclopropylpyridin-2(1H)-one]
Second: O=C1CC[C@H](/C=C(\c2ccc(Cl)c(OC(F)(F)F)c2)c2ccc(C3CC3)c(=O)[nH]2)N1 [Example 4-129, 6-{(E)-1-[4-Chloro-3-(trifluoromethoxy)phenyl]-2-[(2R)-5-oxopyrrolidin-2-yl]ethenyl}-3-cyclopropylpyridin-2(1H)-one]
The EC50 of the first is lower: 0.01 to 0.5 µM for the first, 0.5 to 3 µM for the second.

`O=C1CC[C@H](/C=C(\c2ccc(C(F)F)c(F)c2)c2ccc(C3CC3)c(=O)[nH]2)N1` [Example 4-131, 3-Cyclopropyl-6-{(E)-1-[4-(difluoromethyl)-3-fluorophenyl]-2-[(2R)-5-oxopyrrolidin-2-yl]ethenyl}pyridin-2(1H)-one] and `Cc1cc(/C(=C\[C@H]2CCC(=O)N2)c2ccc(C3CC3)c(=O)[nH]2)ccc1C(F)F` [Example 4-133, 3-Cyclopropyl-6-{(E)-1-[4-(difluoromethyl)-3-methylphenyl]-2-[(2R)-5-oxopyrrolidin-2-yl]ethenyl}pyridin-2(1H)-one] fall in the same range of EC50: 0.01 to 0.5 µM for the first, 0.01 to 0.5 µM for the second.

`COc1ccc(/C(=C\[C@H]2CCC(=O)N2)c2ccc(C3CC3)c(=O)[nH]2)cc1C(F)(F)F` [Example 4-134, 3-Cyclopropyl-6-{(E)-1-[4-methoxy-3-(trifluoromethyl)phenyl]-2-[(2R)-5-oxopyrrolidin-2-yl]ethenyl}pyridin-2(1H)-one] and `COc1cc(/C(=C\[C@H]2CCC(=O)N2)c2ccc(C3CC3)c(=O)[nH]2)ccc1C(F)F` [Example 4-135, 3-Cyclopropyl-6-{(E)-1-[4-(difluoromethyl)-3-methoxyphenyl]-2-[(2R)-5-oxopyrrolidin-2-yl]ethenyl}pyridin-2(1H)-one] fall in the same range of EC50: 0.01 to 0.5 µM for the first, 0.01 to 0.5 µM for the second.

`O=C1CC[C@H](/C=C(\c2ccc(S(=O)(=O)N3CCCC3)cc2)c2ccc(C3CC3)c(=O)[nH]2)N1` [Example 4-136, 3-Cyclopropyl-6-{(E)-2-[(2R)-5-oxopyrrolidin-2-yl]-1-[4-(pyrrolidin-1-ylsulfonyl)phenyl]ethenyl}pyridin-2(1H)-one] and `O=C1CC[C@H](/C=C(\c2ccc(S(=O)(=O)N3CCOCC3)cc2)c2ccc(C3CC3)c(=O)[nH]2)N1` [Example 4-138, 3-Cyclopropyl-6-{(E)-1-[4-(morpholin-4-ylsulfonyl)phenyl]-2-[(2R)-5-oxopyrrolidin-2-yl]ethenyl}pyridin-2(1H)-one] fall in the same range of EC50: 0.01 to 0.5 µM for the first, 0.01 to 0.5 µM for the second.

`NS(=O)(=O)c1ccc(/C(=C\[C@H]2CCC(=O)N2)c2ccc(C3CC3)c(=O)[nH]2)cc1` [Example 4-137, 4-{(E)-1-(5-Cyclopropyl-6-oxo-1,6-dihydropyridin-2-yl)-2-[(2R)-5-oxopyrrolidin-2-yl]ethenyl}benzenesulfonamide] and `CN(CCO)S(=O)(=O)c1ccc(/C(=C\[C@H]2CCC(=O)N2)c2ccc(C3CC3)c(=O)[nH]2)cc1` [Example 4-140, 4-{(E)-1-(5-Cyclopropyl-6-oxo-1,6-dihydropyridin-2-yl)-2-[(2R)-5-oxopyrrolidin-2-yl]ethenyl}-N-(2-hydroxyethyl)-N-methylbenzenesulfonamide] fall in the same range of EC50: 0.01 to 0.5 µM for the first, 0.01 to 0.5 µM for the second.

First: CN(C)S(=O)(=O)Nc1ccc(/C(=C\[C@H]2CCC(=O)N2)c2ccc(C3CC3)c(=O)[nH]2)cc1 [Example 4-139, N′-(4-{(E)-1-(5-Cyclopropyl-6-oxo-1,6-dihydropyridin-2-yl)-2-[(2R)-5-oxopyrrolidin-2-yl]ethenyl}phenyl)-N,N-dimethylsulfuric acid diamide]
Second: O=C1CC[C@H](/C=C(\c2ccncc2)c2ccc(C3CC3)c(=O)[nH]2)N1 [Example 4-144, 3-Cyclopropyl-6-[(E)-2-[(2R)-5-oxopyrrolidin-2-yl]-1-(pyridin-4-yl)ethenyl]pyridin-2(1H)-one]
The EC50 of the first is lower: 0.01 to 0.5 µM for the first, 3 to 10 µM for the second. The first is the more potent here.

First: O=C1CC[C@H](/C=C(\c2ccc(OC3CCOCC3)c(Cl)c2)c2ccc(C3CC3)c(=O)[nH]2)N1 [Example 4-143, 6-{(E)-1-[3-Chloro-4-(tetrahydro-2H-pyran-4-yloxy)phenyl]-2-[(2R)-5-oxopyrrolidin-2-yl]ethenyl}-3-cyclopropylpyridin-2(1H)-one]
Second: O=C1CC[C@H](/C=C(\c2ccc3ccccc3c2)c2ccc(Cl)c(=O)[nH]2)N1 [Example 4-149, 3-Chloro-6-{(E)-1-(naphthalen-2-yl)-2-[(2R)-5-oxopyrrolidin-2-yl]ethenyl}pyridin-2(1H)-one]
The EC50 of the first is lower: 0.01 to 0.5 µM for the first, 0.5 to 3 µM for the second. The first is the more potent here.

`CN1C(=O)CC[C@@H]1/C=C(\c1ccc(C(C)(C)C)cc1)c1ccc(Cl)c(=O)[nH]1` [Example 4-146, 6-{(E)-1-(4-tert-Butylphenyl)-2-[(2R)-1-methyl-5-oxopyrrolidin-2-yl]ethenyl}-3-chloropyridin-2(1H)-one] and `CC(C)c1ccc(/C(=C\[C@H]2CCC(=O)N2C)c2ccc(Cl)c(=O)[nH]2)cc1` [Example 4-147, 3-Chloro-6-{(E)-2-[(2R)-1-methyl-5-oxopyrrolidin-2-yl]-1-[4-(propan-2-yl)phenyl]ethenyl}pyridin-2(1H)-one] fall in the same range of EC50: 0.01 to 0.5 µM for the first, 0.01 to 0.5 µM for the second.

With `COc1cc(C(C)(C)C)ccc1/C(=C\[C@H]1CCC(=O)N1)c1ccc(Cl)c(=O)[nH]1` [Example 4-148, 6-{(E)-1-(4-tert-Butyl-2-methoxyphenyl)-2-[(2R)-5-oxopyrrolidin-2-yl]ethenyl}-3-chloropyridin-2(1H)-one] the EC50 was 0.5 to 3 µM.
